Laboratory results published in paper PMC10952572, “Improved PIEZO1 agonism through 4‐benzoic acid modification of Yoda1” (British Journal of Pharmacology, 2023).

Columns and labels:
[1] = target: T1, human adenosine A2A receptors (Homo sapiens, UniProt P29274); test: Eurofins Hit Profiling Screen PP70: adenosine A2A receptor binding; details: 5 μM
T1 construct: host or cells: HEK 293 membranes
Procedure: These experiments were performed by Eurofins Scientific, and the methods below are from this company's information. Membrane protein/membrane amounts may have varied, and the concentrations used were adjusted as necessary. KC289 was tested at 5 μM.
This assay measured binding of [^3H]CGS‐21680 to human adenosine A2A receptors. HEK 293 cells stably transfected with a plasmid encoding the human adenosine A2A receptor were used to prepare membranes in modified Tris–HCl pH 7.4 buffer using standard techniques. A 15 μg aliquot of membrane was incubated with […] [^3H]CGS‐21680 for 90 min at 25°C. Non‐specific binding was estimated in the presence of 50 μM NECA. Membranes were filtered and washed three times, and the filters were counted to determine [^3H]CGS‐21680 specifically bound.

Microsomal half-life = assay type: in vitro ADME; details: mouse liver microsomes; for half-life at 1 μM: 1 μM compound
Procedure: Compound half‐lives were measured by Malvern Panalytical (UK). Briefly, microsomal mouse liver microsomes (1 mg protein·ml^−1) were pre‐incubated with NADPH cofactor solution at 37°C. Biotransformation was initiated by addition and mixing of 1 μM test compound in a final volume of 350 μl; 25 μl aliquots were removed at 5 min intervals for 35 min and quenched in 300 μl ice‐cold methanol containing internal standard. The protein in the samples was then precipitated by centrifugation at 4°C, and the supernatant was analysed by LC–MS/MS to quantify the test parent compound remaining at each time point.

hPIEZO1 = target: T2, hPIEZO1 (Homo sapiens, UniProt Q92508); test: Pre-treatment with analogue before Yoda1 stimulus, Ca2+ assay in hPIEZO1-TREx cells; assay type: cell-based; details: hPIEZO1-TREx, 10 μM compound 30 min pretreatment before 2 μM Yoda1
T2 construct: expressed in transfected cells
Procedure: HEK 293‐TREx cells and their stably transfected derivatives or transiently transfected HEK 293 or HeLa cells were seeded at a density of 7.5 × 10^4 cells per well into poly‐D‐lysine‐coated 96‐well plates. The plates were either commercially pre‐coated with poly‐D‐lysine (Greiner Bio‐One #655946) or (Greiner Bio‐One #655090) were coated in‐house with 35 μl of a 10 μg·ml^−1 poly‐D‐lysine (Bio‐Techne, Cultrex # 3439‐100‐01) in sterile deionised water per well for at least 24 h and rinsed three times with 100 μl per well sterile D‐PBS before addition of cells. HUVECs were seeded into tissue culture‐treated 96‐well plates (Greiner Bio‐One #655090) at a density of either 2.5 × 10^4 cells 24 h before experimentation or 1.25 × 10^4 cells 48 h before experimentation. Cells were incubated with 2 μM Fura‐2‐AM (Molecular Probes™) in the presence of 0.01% (wt./vol.) pluronic F127 (Sigma‐Aldrich #P2443) in standard bath solution (SBS) for 1 h at 37°C. Cells were washed with SBS for 30 min at room temperature. Alternatively, if inhibitors were being tested, these were added at this time, immediately following a wash in SBS. (−)‐Englerin A (Akbulut et al., [2015]) was used in SBS containing 0.01% pluronic acid as a dispersing agent to minimise aggregation of compound. Unless otherwise stated, the final concentration of DMSO was 0.2% (vol./vol). Working 2000× stock solutions of test compounds were freshly made in DMSO and diluted 1000‐fold in SBS during the 30 min SBS wash/inhibitor pre‐incubation period to obtain 2× solutions for injection. When testing the highest concentration of Yoda1, KC159 and KC289 (30 μM), the final DMSO concentration was 0.6% (vol./vol.). Measurements were made at room temperature on a 96‐well fluorescence plate reader (FlexStation 3, Molecular Devices, Sunnyvale, CA, USA) controlled by SoftMax Pro software v7.0.3. Recipient wells containing 80 μl SBS/0.2% (vol./vol.) DMSO vehicle or inhibitor compound received 80 μl 2× compound at an injection rate of 1 μl·s^−1, and the pipette introduced liquids from a height setting of 70 μl. No trituration was performed. For recordings using Fura‐2, the change in intracellular Ca was indicated as the ratio of Fura‐2 emission (510 nm) intensities at 340 and 380 nm excitation. Photomultipliers were set to medium sensitivity. SBS contained 130 mM NaCl, 5 mM KCl, 8 mM D‐glucose, 10 mM HEPES, 1.2 mM MgCl2 and 1.5 mM CaCl2, and the pH was adjusted to 7.4 with NaOH. The solution was filtered through a 0.2 μm bottle‐top filter prior to use and handled aseptically thereafter.
In view of the effect of Dooku1 described above, we tested if there are inhibitory actions of the new Yoda1 analogues by pre‐treating cells at 10 μM for 30 min prior to adding 2 μM Yoda1 (Figures 9 and S9, SI 1). All except KC157 and KC161 inhibited the action of Yoda1 on hPIEZO1 channels (Figures 9a and S9, SI 1). […] KC159 and KC289 were agonists, and so they may inhibit the effect of Yoda1 simply by pre‐activating the channels. KC158, KC161 and KC162 are also agonists of mPIEZO1 channels (Figure 3). […] Only the 2‐benzoic acid analogue (KC157) lacks agonist or antagonist properties.

mPIEZO1 = target: T3, mPIEZO1 (Mus musculus, UniProt E2JF22); test: Manual whole-cell patch clamp on mPIEZO1-TREx cells; assay type: cell-based; details: 10 μM, ramp −100 to +100 mV
T3 construct: expressed in transfected cells
Procedure: For manual patch clamp, macroscopic transmembrane ionic currents of mPIEZO1 HEK‐TREx cells (or control HEK‐TREx cells) were recorded using the standard whole‐cell configuration for patch clamp in voltage‐clamp mode. For studies of HEK 293 cells overexpressing PIEZO2 (or control HEK 293 cells), the outside‐out patch configuration was used in voltage‐clamp mode. All recordings were made using an Axopatch 200B amplifier (Axon Instruments, Inc., USA) equipped with Digidata 1550B hosted by a PC running pClamp 10.7 software (Molecular Devices, USA) at room temperature. The cells were maintained during the experiment in an external salt buffer solution (SBS) of the following composition: 135 mM NaCl, 5 mM KCl, 1.5 mM CaCl2, 1.2 mM MgCl2, 8 mM D‐glucose and 10 mM HEPES (titrated to pH 7.4 with NaOH). […] For outside‐out experiments, Na2ATP and Na2GTP were omitted. For whole‐cell experiments, cells were held at 0 mV and current amplitude was monitored by application of ramp voltage protocol from −100 to +100 mV at 10 s intervals. Currents were measured at −100 and +100 mV. Test compounds were applied in the external solution using a bath perfusion system. SBS flow was applied to the cells for 1 min before the addition of compounds. […] Data were analysed and plotted using pClamp 10.7 and Microcal Origin 2018 (Microcal Software, USA).

T2 sequence (Q92508 whole entry): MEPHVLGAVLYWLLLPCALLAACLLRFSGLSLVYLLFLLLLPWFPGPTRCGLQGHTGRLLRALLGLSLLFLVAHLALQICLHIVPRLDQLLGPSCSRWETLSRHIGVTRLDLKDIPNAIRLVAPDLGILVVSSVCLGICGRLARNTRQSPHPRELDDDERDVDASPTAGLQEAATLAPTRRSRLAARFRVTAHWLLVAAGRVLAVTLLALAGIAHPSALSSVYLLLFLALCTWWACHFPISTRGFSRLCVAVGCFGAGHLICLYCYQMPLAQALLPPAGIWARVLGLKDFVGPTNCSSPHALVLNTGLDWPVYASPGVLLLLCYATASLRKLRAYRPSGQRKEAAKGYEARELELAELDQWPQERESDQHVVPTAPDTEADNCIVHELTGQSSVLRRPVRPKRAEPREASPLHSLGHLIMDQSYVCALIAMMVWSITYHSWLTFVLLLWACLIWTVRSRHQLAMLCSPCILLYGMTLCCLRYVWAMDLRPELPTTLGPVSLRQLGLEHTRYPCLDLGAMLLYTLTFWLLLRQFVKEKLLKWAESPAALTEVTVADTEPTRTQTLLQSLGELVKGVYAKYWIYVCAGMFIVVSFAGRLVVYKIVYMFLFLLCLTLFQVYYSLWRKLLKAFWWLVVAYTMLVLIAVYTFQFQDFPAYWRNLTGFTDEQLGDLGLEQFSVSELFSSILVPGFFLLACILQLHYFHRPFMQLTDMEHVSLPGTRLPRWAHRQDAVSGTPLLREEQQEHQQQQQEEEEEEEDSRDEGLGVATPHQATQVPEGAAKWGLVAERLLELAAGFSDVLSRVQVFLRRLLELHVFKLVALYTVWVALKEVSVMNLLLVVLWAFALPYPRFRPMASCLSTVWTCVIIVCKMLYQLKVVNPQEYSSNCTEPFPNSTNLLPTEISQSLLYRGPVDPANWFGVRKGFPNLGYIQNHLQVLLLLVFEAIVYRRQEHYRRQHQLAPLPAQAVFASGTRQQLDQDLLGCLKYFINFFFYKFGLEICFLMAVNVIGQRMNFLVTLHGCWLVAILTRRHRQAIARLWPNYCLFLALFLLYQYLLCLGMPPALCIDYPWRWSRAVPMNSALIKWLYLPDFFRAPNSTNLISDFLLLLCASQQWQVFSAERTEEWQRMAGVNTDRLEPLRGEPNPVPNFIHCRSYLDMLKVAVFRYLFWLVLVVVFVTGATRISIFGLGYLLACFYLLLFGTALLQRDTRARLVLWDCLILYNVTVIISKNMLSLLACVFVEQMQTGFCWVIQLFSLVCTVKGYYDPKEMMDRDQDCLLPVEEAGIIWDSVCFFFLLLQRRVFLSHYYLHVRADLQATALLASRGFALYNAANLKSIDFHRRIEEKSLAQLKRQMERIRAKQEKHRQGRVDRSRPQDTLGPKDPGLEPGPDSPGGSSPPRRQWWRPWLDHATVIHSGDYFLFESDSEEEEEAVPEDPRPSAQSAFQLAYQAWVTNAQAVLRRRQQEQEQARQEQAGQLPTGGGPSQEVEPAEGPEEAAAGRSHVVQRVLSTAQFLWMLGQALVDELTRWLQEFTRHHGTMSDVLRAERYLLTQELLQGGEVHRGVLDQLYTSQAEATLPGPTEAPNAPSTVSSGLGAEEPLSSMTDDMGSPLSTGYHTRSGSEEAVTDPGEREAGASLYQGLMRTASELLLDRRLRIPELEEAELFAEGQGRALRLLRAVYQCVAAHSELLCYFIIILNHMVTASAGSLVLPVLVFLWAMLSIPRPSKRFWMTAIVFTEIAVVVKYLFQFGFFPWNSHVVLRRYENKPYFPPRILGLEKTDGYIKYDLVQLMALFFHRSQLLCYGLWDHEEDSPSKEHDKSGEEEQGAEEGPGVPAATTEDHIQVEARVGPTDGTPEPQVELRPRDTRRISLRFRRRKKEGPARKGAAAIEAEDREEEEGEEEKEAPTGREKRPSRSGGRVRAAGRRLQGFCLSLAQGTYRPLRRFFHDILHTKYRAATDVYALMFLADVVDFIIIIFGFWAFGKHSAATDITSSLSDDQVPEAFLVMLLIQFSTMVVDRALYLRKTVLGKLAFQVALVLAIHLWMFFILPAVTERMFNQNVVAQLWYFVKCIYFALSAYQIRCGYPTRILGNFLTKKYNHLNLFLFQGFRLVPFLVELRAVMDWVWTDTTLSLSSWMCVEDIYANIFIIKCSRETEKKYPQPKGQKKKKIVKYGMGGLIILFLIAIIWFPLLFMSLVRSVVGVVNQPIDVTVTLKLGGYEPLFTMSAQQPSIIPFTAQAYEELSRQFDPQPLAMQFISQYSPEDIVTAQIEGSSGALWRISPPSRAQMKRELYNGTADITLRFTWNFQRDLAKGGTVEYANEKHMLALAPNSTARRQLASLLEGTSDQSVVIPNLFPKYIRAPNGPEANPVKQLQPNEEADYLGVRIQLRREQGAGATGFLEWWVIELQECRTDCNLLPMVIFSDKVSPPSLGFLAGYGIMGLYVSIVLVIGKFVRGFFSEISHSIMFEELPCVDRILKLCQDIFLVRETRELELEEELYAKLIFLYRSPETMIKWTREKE
T3 sequence (E2JF22 whole entry): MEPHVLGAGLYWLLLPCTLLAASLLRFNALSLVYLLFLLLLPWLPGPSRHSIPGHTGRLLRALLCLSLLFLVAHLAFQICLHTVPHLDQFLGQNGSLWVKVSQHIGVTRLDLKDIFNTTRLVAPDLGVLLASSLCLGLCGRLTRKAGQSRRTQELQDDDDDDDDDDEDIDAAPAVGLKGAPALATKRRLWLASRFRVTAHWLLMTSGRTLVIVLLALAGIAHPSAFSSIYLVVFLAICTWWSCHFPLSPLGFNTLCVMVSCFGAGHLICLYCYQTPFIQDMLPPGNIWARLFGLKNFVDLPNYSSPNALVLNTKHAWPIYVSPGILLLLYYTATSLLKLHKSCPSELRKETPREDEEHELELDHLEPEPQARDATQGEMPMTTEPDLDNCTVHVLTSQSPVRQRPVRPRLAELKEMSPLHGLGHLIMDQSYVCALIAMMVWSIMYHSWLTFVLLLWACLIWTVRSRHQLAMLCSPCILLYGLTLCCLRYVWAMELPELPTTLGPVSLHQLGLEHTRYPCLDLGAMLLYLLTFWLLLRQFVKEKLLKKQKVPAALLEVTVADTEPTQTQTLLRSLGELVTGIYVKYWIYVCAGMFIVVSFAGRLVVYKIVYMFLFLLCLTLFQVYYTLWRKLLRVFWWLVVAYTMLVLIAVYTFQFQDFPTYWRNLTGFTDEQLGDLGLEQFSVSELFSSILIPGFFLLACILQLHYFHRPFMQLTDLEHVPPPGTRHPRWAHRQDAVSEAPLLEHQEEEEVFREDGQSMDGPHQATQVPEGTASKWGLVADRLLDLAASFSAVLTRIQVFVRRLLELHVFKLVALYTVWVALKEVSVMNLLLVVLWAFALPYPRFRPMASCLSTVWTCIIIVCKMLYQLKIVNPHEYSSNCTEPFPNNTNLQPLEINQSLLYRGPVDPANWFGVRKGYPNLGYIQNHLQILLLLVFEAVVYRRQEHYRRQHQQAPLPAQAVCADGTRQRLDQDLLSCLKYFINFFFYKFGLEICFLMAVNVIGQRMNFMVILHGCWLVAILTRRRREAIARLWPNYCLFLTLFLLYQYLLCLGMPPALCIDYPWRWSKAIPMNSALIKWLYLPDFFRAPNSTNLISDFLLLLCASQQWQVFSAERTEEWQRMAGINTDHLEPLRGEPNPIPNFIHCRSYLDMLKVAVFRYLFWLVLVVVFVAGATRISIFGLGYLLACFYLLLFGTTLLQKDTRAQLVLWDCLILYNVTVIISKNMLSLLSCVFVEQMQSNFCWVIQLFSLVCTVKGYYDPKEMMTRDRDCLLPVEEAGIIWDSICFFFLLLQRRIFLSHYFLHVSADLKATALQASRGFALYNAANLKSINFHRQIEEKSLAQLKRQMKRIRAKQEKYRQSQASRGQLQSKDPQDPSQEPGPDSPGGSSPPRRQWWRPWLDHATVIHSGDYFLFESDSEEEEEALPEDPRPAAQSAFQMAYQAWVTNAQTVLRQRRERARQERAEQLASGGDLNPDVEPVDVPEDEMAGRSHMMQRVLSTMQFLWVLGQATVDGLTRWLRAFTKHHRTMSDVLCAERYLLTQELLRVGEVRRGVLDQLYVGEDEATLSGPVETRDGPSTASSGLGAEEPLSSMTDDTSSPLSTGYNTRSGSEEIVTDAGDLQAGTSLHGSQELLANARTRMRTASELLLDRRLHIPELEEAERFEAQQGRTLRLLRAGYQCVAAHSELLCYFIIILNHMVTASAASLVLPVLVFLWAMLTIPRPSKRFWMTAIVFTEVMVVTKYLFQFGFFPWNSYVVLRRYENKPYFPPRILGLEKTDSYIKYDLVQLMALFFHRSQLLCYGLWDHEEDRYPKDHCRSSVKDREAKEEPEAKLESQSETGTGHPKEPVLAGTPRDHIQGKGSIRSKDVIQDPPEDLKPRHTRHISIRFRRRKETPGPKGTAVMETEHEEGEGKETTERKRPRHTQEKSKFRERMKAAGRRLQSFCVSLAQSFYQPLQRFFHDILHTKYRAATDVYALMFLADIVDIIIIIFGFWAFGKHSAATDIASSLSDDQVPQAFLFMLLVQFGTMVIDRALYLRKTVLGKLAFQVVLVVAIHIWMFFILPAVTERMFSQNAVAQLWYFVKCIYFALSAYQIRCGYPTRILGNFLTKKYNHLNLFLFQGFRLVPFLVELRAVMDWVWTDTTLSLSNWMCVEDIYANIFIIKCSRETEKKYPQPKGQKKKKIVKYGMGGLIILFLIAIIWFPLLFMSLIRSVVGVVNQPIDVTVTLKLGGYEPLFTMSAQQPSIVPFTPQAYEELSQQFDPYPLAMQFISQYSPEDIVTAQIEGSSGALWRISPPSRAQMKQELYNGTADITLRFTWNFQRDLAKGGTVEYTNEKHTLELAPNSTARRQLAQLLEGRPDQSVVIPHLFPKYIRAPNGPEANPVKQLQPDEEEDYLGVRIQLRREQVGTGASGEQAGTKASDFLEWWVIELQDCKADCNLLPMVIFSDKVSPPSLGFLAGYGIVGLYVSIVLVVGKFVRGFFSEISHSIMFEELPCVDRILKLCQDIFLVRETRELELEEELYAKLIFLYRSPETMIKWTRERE

SMILES | Binding to adenosine A2A receptors [1] | Microsomal half-life relative to Yoda1 (Microsomal half-life) | half-life at 1 μM (Microsomal half-life) [min] | 2 μM Yoda1-evoked peak ΔCa2+i (ΔF340/380), median fold difference compared to DMSO pretreatment (hPIEZO1) [fold] | Whole-cell current (mPIEZO1)
O=C([O-])c1ccc(-c2nnc(SCc3c(Cl)cccc3Cl)s2)cc1.[K+] [KC289] | modest interaction | at least 20 times | 24.6 | −2.5 | –
O=C(O)c1ccc(-c2nnc(SCc3c(Cl)cccc3Cl)s2)cc1 [KC159] | – | at least 20 times | 29.6 | −1.7 | increases current
